Tests used:
HaCaT cells [1] = assay: Intracellular NAD+ content; assay type: cell-based; details: 5 μM corylin or 20 μM neobavaisoflavone, 24 hours
Method: HaCaT cells were seeded into a 6-cm dish (4×10^5 cells/dish), and incubated with 5 μM corylin or 20 μM neobavaisoflavone, or without drugs, for 24 hours, before being harvested. The harvested cells were extracted with 250 μl of 1 M glacial formic acid saturated with butanol, incubated for 30 minutes on ice. Then, 62.5 μl of 100% TCA (w/v) was added to each sample, and the samples were incubated on ice for an additional 15 minutes. The samples were pelleted by centrifugation at 14,000×g for 5 minutes, and the supernatant was transferred to another eppendorf tube. The pellets were then washed with 125 μl of 20% TCA, and centrifuged, and the supernatant was combined with the aforementioned supernatant. The combined supernatants were used for the following tests. […] After incubation at 30° C. for 20 minutes, the absorbance of each sample was measured at 340 nm. The NAD^+ level of the cells in each supernatant sample was determined by the test sample (the alcohol ADH catalytic group) relative to the corresponding control sample (the water group, as the basal NADH level).

HUVECs [2] = assay: Senescence-associated (SA)-β-gal staining of HUVECs; assay type: cell-based, human; details: late stage HUVECs (PDL9), vs control without corylin
Method: HUVECs at 90% confluency were collected, washed, and fixed with 2% formaldehyde and 0.2% glutaraldehyde for 5 minutes. The cells were then subjected to staining by incubation with a staining solution (40 mmol/l citric acid, sodium phosphate, pH 6.0, 1 mg/ml 5-bromo-4-chloro-3-isolyl-β-D-galactoside (X-gal, Sigma), 5 mmol/l potassium ferrocyanide, 5 mmol/l potassium ferricyanide, 150 mmol/l NaCl, and 2 mmol/l MgCl2) at 37° C. for 18 hours. The results of SA-β-gal-positive cells were observed by microscopy, and were counted for over 300 cells in at least three independent fields.

HUVECs [3] = assay: Population doubling level (PDL) of HUVECs; assay type: cell-based, human
Method: HUVECs were cultured in M199 medium supplemented with 4-(2-hydroxyethyl)-1-piperazineethanesulfonic acid (HEPES), endothelial cell growth supplement (ECGS; Millipore), heparin, NaHCO3, L-glutamine, sodium pyruvate, and 20% fetal bovine serum (FBS; final concentration). HaCaT cells were cultured in DMEM supplemented with 10% FBS and 2 mM glutamine. The cells were grown in an atmosphere of 5% CO2 at 37° C., and passaged to maintain under 90% confluency. The cells were propagated until senescence, and those in every passage were collected for further analysis, numbers of which were determined when sub-cultured.

p21 = assay: Western blot of p21 expression in HUVECs; assay type: cell-based, human; details: late stage HUVECs (PDL9)
Method: HUVECs were cultured in M199 medium supplemented with 4-(2-hydroxyethyl)-1-piperazineethanesulfonic acid (HEPES), endothelial cell growth supplement (ECGS; Millipore), heparin, NaHCO3, L-glutamine, sodium pyruvate, and 20% fetal bovine serum (FBS; final concentration). HaCaT cells were cultured in DMEM supplemented with 10% FBS and 2 mM glutamine. The cells were grown in an atmosphere of 5% CO2 at 37° C., and passaged to maintain under 90% confluency. The cells were propagated until senescence, and those in every passage were collected for further analysis, numbers of which were determined when sub-cultured. Population doublings (PDs) were estimated following the equation: PDL=3.32 (log(total viable cells at harvest/total viable cells at seeding). The cells were harvested and lysed in RIPA lysis buffer containing 1% of Triton X-100 and a protease inhibitor cocktail, and total protein concentrations were measured with a protein assay kit. Proteins in the samples of the lysates with the same amounts of total protein were separated by sodium dodecyl sulfate polyacrylamide gel electrophoresis (SDS-PAGE) (10% polyacrylamide gels) and analyzed by immunoblotting. Primary antibodies against p21 and β-actin were applied to detect the corresponding proteins. […] Protein quantification was performed by software.

[4] = Body weight and food intake of aged HFD-fed mice; assay type: in vivo, mouse; details: entire course of the experiment
Method: (§1) All animal procedures were complied with relevant regulations and were conducted under approved protocols (Protocol #CGU15-150) by Research Guidelines for the Care and Use of Laboratory Animals, Chang Guan University. C57BL/6J male mice (34 weeks of age) were maintained at 23±1° C. and at humidity of 45-65% with a 12 h dark/light cycle. After reaching 40 weeks of age, the mice were randomly divided into two groups: Group I (HFD), fed a HFD with 54% fat (n=30), and Group II (HFD/C), fed a HFD containing corylin (1 g corylin/1 kg HFD) (or the dose of corylin was 50 mg/kg) (n=30).
(§2) The ability of corylin to delay the aging process in mice was examined in the present example. To this purpose, aged C57BL/6J mice (forty-week-old) were fed with a HFD or a HFD plus 0.1% (w/w) corylin (HFD/C) ad libitum for the rest of their lives.

HaCaT cells [5] = assay: UVB-induced apoptosis analysis (crystal violet); assay type: cell-based; details: 5 μM corylin or 20 μM neobavaisoflavone 4 hours, UVB 14 mJ/m^2 four runs
Method: HaCaT cells were seeded into a 12-well plate (7×10^4 cells/well), and incubated with 5 μM corylin or 20 μM neobavaisoflavone, or without drugs, for 4 hours, before subjected to UVB irradiation at 14 mJ/m^2 for four runs. At 24 hours, the irradiated cells were collected, washed, and fixed with 4% paraformaldehyde, before being immersed in 0.5% crystal violet solution for 15 minutes at room temperature. The cells were washed, air-dried, photographed, and immersed in 50% ethanol containing 0.1% glacial acetic acid to remove the crystal violet dye. The absorbance at 550 nm was read by a microplate reader.

[6] = Pharmacokinetic analysis, serum level after corylin oral gavage; assay type: in vivo, mouse; details: mice
Method: The blood samples of the C57BL/6J male mice (n=4) were collected at 1, 3, 6, 9, 12 and 15 h after corylin oral gavage, and the serum samples were then separated therefrom. Each serum sample (100 μl) was mixed with ice-cold acetonitrile (150 μl) at 4° C. for 1 hour, and then centrifuged at 15,000×g and 4° C. for 15 min. After centrifugation, the supernatant (150 μl) was harvested, and 150 μl ddH2O was added. The resulting mixture was analyzed by a LC/FTMS system.

aged C57BL/6J mice = assay: Survival of aged mice fed HFD with or without corylin; assay type: in vivo, mouse; details: corylin supplement 0.1% (w/w) in HFD
Method: as §1, §2

HaCaT cells [7] = assay: UVB-induced DNA breakage analysis; assay type: cell-based; details: 100 μM pretreatment 24 hours, UVB 30 mJ/m^2
Method: HaCaT cells were seeded into a 12-well plate (7×10^4 cells/well), and incubated with 100 μM corylin or 100 μM neobavaisoflavone, or without drugs, for 24 hours, before subjected to UVB irradiation at 30 mJ/m^2. The irradiated cells were collected, washed, and mixed with 1% agarose gel solution 140 μl at 35° C., before being applied onto slides. The slides were placed at 4° C. for 1 hour for solidifying the gel, immersed in a lysis buffer for at least 1 hour and subsequently in an electrophoresis fluid for 40 minutes, and then subjected to gel-electrophoresis at 25 V for 20 minutes. The slides were immersed in a neutralizing solution for 5 minutes, mounted with 30 μl mounting medium with DAPI, and observed under a fluorescence microscope. The results were analyzed with the software OPEN COMET to quantify the breakage and the repair of the DNA in the cells.

Structure (SMILES)	intracellular NAD+ level (HaCaT cells [1])	number of SA-β-gal-positive senescent cells (HUVECs [2])	population doubling level (PDL) of HUVECs (HUVECs [3])	expression level of p21 (p21)	trajectory of body weight vs HFD group [4]	trajectory of food intake vs HFD group [4]	survival rate of the cell under UVB irradiation (HaCaT cells [5])	concentration at 1 h ([6]; male, C57BL/6J, mouse, serum, 1 hour after oral gavage)	concentration at 3 h ([6]; male, C57BL/6J, mouse, serum, 3 hours after oral gavage)	concentration at 6 h ([6]; male, C57BL/6J, mouse, serum, 6 hours after oral gavage)	concentration at 9 h ([6]; male, C57BL/6J, mouse, serum, 9 hours after oral gavage)	concentration at 12 h ([6]; male, C57BL/6J, mouse, serum, 12 hours after oral gavage)	concentration at 15 h ([6]; male, C57BL/6J, mouse, serum, 15 hours after oral gavage)	concentration at 12 h ([6]; 1 hour after oral gavage)	concentration at 12 h ([6]; 15 hours after oral gavage)	lifespan of aged mice fed on high fat diet (aged C57BL/6J mice)	UVB-induced DNA breakage (HaCaT cells [7])
CC1(C)C=Cc2cc(-c3coc4cc(O)ccc4c3=O)ccc2O1 [corylin]	elevate	decrease	increase	decreased	did not diverge	did not diverge	significantly increased	680 nM	500 nM	490 nM	540 nM	390 nM	260 nM	680 nM	260 nM	significantly increased	completely suppressed
CC(C)=CCc1cc(-c2coc3cc(O)ccc3c2=O)ccc1O [neobavaisoflavone]	elevate	–	–	–	–	–	significantly increased	–	–	–	–	–	–	–	–	–	completely suppressed
